Data as given in patent publication US12440507B2, “Sting inhibitors and their therapeutic uses” (CENTRE NATIONAL DE LA RECHERCHE SCIENTIFIQUE, priority 2019, dated 2025).

How the values were obtained:
GST-STING139-378 = biological target: T1, GST-STING139-378 (Mus musculus, UniProt Q3TBT3); test: Pull-down using biotinylated Ap4A and recombinant proteins (in vitro binding and competition); settings: for Competition for the binding of STING to biotinylated Ap4A: 10-fold excess of the competitor, 1 h at 4° C.
T1 construct: GST-STING (aa 139-378); made in house; host or cells: Escherichia coli BL21
T1 sequence (Q3TBT3 139-378): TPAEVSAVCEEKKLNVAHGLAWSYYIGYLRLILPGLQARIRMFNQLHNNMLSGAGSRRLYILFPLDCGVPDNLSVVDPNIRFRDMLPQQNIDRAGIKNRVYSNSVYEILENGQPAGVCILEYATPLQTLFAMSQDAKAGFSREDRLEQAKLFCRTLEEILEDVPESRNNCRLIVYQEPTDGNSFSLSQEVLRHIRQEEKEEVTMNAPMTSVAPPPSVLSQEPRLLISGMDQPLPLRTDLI

MEF^Trex1−/− = test: Ifnβ / type I interferon mRNA levels (RT-qPCR) in treated MEF^Trex1−/−; format: cell-based, mouse; settings: 500 μM
Experimental: (§1) RNA extraction and RT-qPCR RNA was extracted using Trizol (Invitrogen) and treated with TURBO DNase (Ambion) according to manufacturers' protocols. Reverse transcription (SuperScript IV reverse transcriptase; Invitrogen) and qPCR using specific primers were performed using SYBR GREEN (Takara) master mix and LightCycler 480 cycler (Roche). mRNA levels were normalized to Gapdh mRNA levels except in zebrafish experiments where mRNA levels were normalized to zebrafish actin (zactin).
(§2) Cells were transfected with JetPrime transfection reagent (Polyplus) at 1:2 ratio with various nucleic acids at 2 μg/ml. […] Ap4A or STAN-1 (Sigma Aldrich) were used at 500 μM in Optimem.
Next, to test whether Ap4A inhibits inflammatory responses via a STING-dependent mechanism, the inventors used three-prime repair exonuclease 1 (Trex1)-deficient mouse embryonic fibroblasts (MEF^Trex1−/−—FIG. S1D), as these are a well-characterized model of pathologic chronic inflammation with STING-dependent elevated Ifnβ levels (FIG. S1D)—(15, 16). First, the inventors treated MEF^Trex1−/− with Ap4A for 45, 90 and 180 min. […] To further assess the impact of Ap4A on STING activation and to avoid potential side effects of the addition of exogenous Ap4A to cells, the inventors next performed experiments where they modulate the expression levels of LysRS, the main producer of Ap4A (9, 10). […]

WT-MEF = test: DMXAA-induced Ifnβ expression in WT-MEF; format: cell-based, mouse; settings: 200 μM DMXAA, treated with Ap4A for 2 h
Experimental: Data are normalized to non-treated control. Unpaired t-test. **: p<0.005.
as §1, §2

MEF^STING−/− = test: DMXAA-induced Ifnβ expression in STING knockout MEF; format: cell-based, mouse; settings: 200 μM DMXAA, treated with Ap4A for 2 h
Experimental: Data are normalized to non-treated control.
as §1, §2

Row | Interaction of STING139-378 with Streptavidin-immobilized biotinylated Ap4A (GST-STING139-378; Western blotting of pull-down) | Molecule | Competition for the binding of STING to biotinylated Ap4A (GST-STING139-378) | type I interferon expression (IFNα and IFNβ mRNA levels) (MEF^Trex1−/−; 3 hrs, RT-qPCR) | Ifnβ mRNA levels (MEF^Trex1−/−; Ap4A 45, 90 and 180 min, STAN-1 3 h, versus untreated) | Ability of DMXAA to induce Ifnβ expression on co-treatment (WT-MEF) | Ability of DMXAA to induce Ifnβ expression on co-treatment (MEF^STING−/−)
1 | interacts | Nc1ncnc2c1ncn2[C@@H]1O[C@H](COP(=O)(O)OP(=O)(O)OP(=O)(O)OP(=O)(O)OC[C@H]2O[C@@H](n3cnc4c(N)ncnc43)[C@H](O)[C@@H]2O)[C@@H](O)[C@H]1O [Ap4A, Diadenosine tetraphosphate] | specific | decreases type I interferon expression | decreased Ifni mRNA levels | by half | no decrease was observed
2 |  | cyclic GMP-AMP [cGAMP] | displaced |  |  |  | 
